Reference: patent publication US10308644B2, “Heterocyclic compounds as immunomodulators” (Incyte Corporation, priority 2016, dated 2019)

target: PD-1/PD-L1 (Homo sapiens (Human), UniProt Q9NZQ7); experiment: PD-1/PD-L1 Homogeneous Time-Resolved Fluorescence (HTRF) Binding Assay; conditions: recombinant human PD-1 (3 nM) and PD-L1 (10 nM), 25° C., PBS pH 7.4
In short: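 Fc-tagged human PD-1 (25-167, 3 nM) and His-tagged PD-L1 (19-238, 10 nM) preincubated with inhibitor 40 min in PBS pH 7.4, 0.05% Tween-20, 0.1% BSA, 1% DMSO, 25 °C. Binding detected by HTRF (Eu anti-IgG/APC anti-His, 665/620 nm) after 60 min; IC50 from percent control activity.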

PD-1/PD-L1, sequence (Q9NZQ7 19-238): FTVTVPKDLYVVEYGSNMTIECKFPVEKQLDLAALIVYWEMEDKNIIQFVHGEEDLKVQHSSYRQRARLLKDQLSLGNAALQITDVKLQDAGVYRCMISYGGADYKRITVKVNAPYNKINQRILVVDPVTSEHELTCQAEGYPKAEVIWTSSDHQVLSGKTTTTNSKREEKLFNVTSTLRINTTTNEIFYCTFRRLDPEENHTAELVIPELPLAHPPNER

Compound	IC50 [µM]
Cc1c(Nc2nccc3cc(CN4CC[C@H](O)C4)cnc23)cccc1-c1cccc(-c2nc3cc(CN4CCCC[C@H]4C(=O)O)cc(Cl)c3o2)c1C [Example 5, (S)-1-((7-chloro-2-(3′-((3-(((S)-3-hydroxypyrrolidin-1-yl)methyl)-1,7-naphthyridin-8-yl)amino)-2,2′-dimethyl-[1,1′-biphenyl]-3-yl)benzo[d]oxazol-5-yl)methyl)piperidine-2-carboxylic acid]	≤ 0.01
Cc1c(-c2nc3cc(CN4CC[C@@H](C(=O)O)C4)cc(C#N)c3o2)cccc1-c1cccc(-c2nc3c(s2)CN(C(=O)CNC(C)C)C3)c1C [Example 110, (R)-1-((7-cyano-2-(3′-(5-(2-(isopropylamino)acetyl)-5,6-dihydro-4H-pyrrolo[3,4-d]thiazol-2-yl)-2,2′-dimethylbiphenyl-3-yl)benzo[d]oxazol-5-yl)methyl)pyrrolidine-3-carboxylic acid]	≤ 0.01
Cc1c(-c2nc3cc(CNCCO)cc(Cl)c3o2)cccc1-c1cccc(NC(=O)c2nc3c(s2)CN(C)CC3)c1Cl [Example 9, N-(2-chloro-3′-(7-chloro-5-(((2-hydroxyethyl)amino)methyl)benzo[d]oxazol-2-yl)-2′-methyl-[1,1′-biphenyl]-3-yl)-5-methyl-4,5,6,7-tetrahydrothiazolo[5,4-c]pyridine-2-carboxamide]	≤ 0.01
Cc1c(-c2nc3cc(CN4CC[C@H](C(=O)O)C4)cc(C#N)c3o2)cccc1-c1cccc(Nc2nccc3cc(CN4CC[C@@H](O)C4)cnc23)c1Cl [Example 83, (S)-1-((2-(2′-chloro-3′-(3-(((R)-3-hydroxypyrrolidin-1-yl)methyl)-1,7-naphthyridin-8-ylamino)-2-methylbiphenyl-3-yl)-7-cyanobenzo[d]oxazol-5-yl)methyl)pyrrolidine-3-carboxylic acid]	≤ 0.01
Cc1c(-c2nc3cc(CN4CC[C@@H](C(=O)O)C4)cc(C#N)c3o2)cccc1-c1cccc(Nc2nccc3cc(C4CCCN4)cnc23)c1Cl (stereo partly drawn) [Example 97, (3R)-1-((2-(2′-chloro-2-methyl-3′-(3-(pyrrolidin-2-yl)-1,7-naphthyridin-8-ylamino)biphenyl-3-yl)-7-cyanobenzo[d]oxazol-5-yl)methyl)pyrrolidine-3-carboxylic acid]	≤ 0.01
Cc1c(-c2nc3cc(CN4CC[C@H](C(=O)O)C4)cc(C#N)c3o2)cccc1-c1cccc(NC(=O)c2nc3c(n2C)CN(C)C3)c1Cl [Example 94, (S)-1-((2-(2′-chloro-3′-(1,5-dimethyl-1,4,5,6-tetrahydropyrrolo[3,4-d]imidazole-2-carboxamido)-2-methylbiphenyl-3-yl)-7-cyanobenzo[d]oxazol-5-yl)methyl)pyrrolidine-3-carboxylic acid]	≤ 0.01
Cc1c(-c2nc3c(o2)CN(C(=O)CN(C)C)C3)cccc1-c1cccc(-c2nc3cc(CN4CCC(C(=O)O)CC4)cc(C#N)c3o2)c1C [Example 246, 1-((7-cyano-2-(3′-(5-(dimethylglycyl)-5,6-dihydro-4H-pyrrolo[3,4-d]oxazol-2-yl)-2,2′-dimethyl-[1,1′-biphenyl]-3-yl)benzo[d]oxazol-5-yl)methyl)piperidine-4-carboxylic acid]	≤ 0.01
Cc1c(-c2nc3cc(CN4CC[C@@H](C(=O)O)C4)cc(C#N)c3o2)cccc1-c1cccc(Nc2cncc3nccnc23)c1Cl [Example 15, (R)-1-((2-(2′-chloro-2-methyl-3′-(pyrido[3,4-b]pyrazin-8-ylamino)biphenyl-3-yl)-7-cyanobenzo[d]oxazol-5-yl)methyl)pyrrolidine-3-carboxylic acid]	≤ 0.01
Cc1c(-c2nc3cc(CN4CC[C@H](C(=O)O)C4)cc(C#N)c3o2)cccc1-c1cccc(-c2nc3c(s2)CN(CCO)CC3)c1C [Example 67, (S)-1-((7-cyano-2-(3′-(5-(2-hydroxyethyl)-4,5,6,7-tetrahydrothiazolo[5,4-c]pyridin-2-yl)-2,2′-dimethyl-[1,1′-biphenyl]-3-yl)benzo[d]oxazol-5-yl)methyl)pyrrolidine-3-carboxylic acid]	≤ 0.01

Results, then the compound that gave them:

IC50 [µM]	Compound
≤ 0.01	Cc1c(-c2nc3c(o2)CN(C(=O)CN2CC[C@H](C(=O)O)C2)C3)cccc1-c1cccc(-c2nc3cc(CN4CC[C@@H](O)C4)cc(C#N)c3o2)c1C [Example 131, (S)-1-(2-(2-(3′-(7-cyano-5-(((R)-3-hydroxypyrrolidin-1-yl)methyl)benzo[d]oxazol-2-yl)-2,2′-dimethyl-[1,1′-biphenyl]-3-yl)-4,6-dihydro-5H-pyrrolo[3,4-d]oxazol-5-yl)-2-oxoethyl)pyrrolidine-3-carboxylic acid]
≤ 0.01	Cc1c(-c2nc3cc(CN4CC[C@@H](O)C4)cc(C#N)c3o2)cccc1-c1cccc(NC(=O)c2nc3c(n2C)CC(C)(C(=O)O)N(C)C3)c1Cl (stereo partly drawn) [Example 165, 2-(2-chloro-3′-(7-cyano-5-(((R)-3-hydroxypyrrolidin-1-yl)methyl)benzo[d]oxazol-2-yl)-2′-methylbiphenyl-3-ylcarbamoyl)-1,5,6-trimethyl-4,5,6,7-tetrahydro-1H-imidazo[4,5-c]pyridine-6-carboxylic acid]
≤ 0.01	CCN(C)CC(=O)N1Cc2nc(-c3cccc(-c4cccc(-c5nc6cc(CN7CC[C@@H](C(=O)O)C7)cc(C#N)c6o5)c4C)c3C)sc2C1 [Example 114, (R)-1-((7-cyano-2-(3′-(5-(2-(ethyl(methyl)amino)acetyl)-5,6-dihydro-4H-pyrrolo[3,4-d]thiazol-2-yl)-2,2′-dimethylbiphenyl-3-yl)benzo[d]oxazol-5-yl)methyl)pyrrolidine-3-carboxylic acid]
≤ 0.01	Cc1c(-c2nc3cc(CN4CC[C@@H](O)C4)cc(C#N)c3o2)cccc1-c1cccc(NC(=O)c2nc3c(n2C)CCN(Cc2ccc(B(O)O)cc2)C3)c1Cl [Example 240, (R)-4-((2-(2-chloro-3′-(7-cyano-5-((3-hydroxypyrrolidin-1-yl)methyl)benzo[d]oxazol-2-yl)-2′-methylbiphenyl-3-ylcarbamoyl)-1-methyl-6,7-dihydro-1H-imidazo[4,5-c]pyridin-5(4H)-yl)methyl)phenylboronic acid]
≤ 0.01	Cc1c(Nc2ncnc3cc(CN4CC[C@@H](O)C4)cnc23)cccc1-c1cccc(-c2nc3cc(CN4CC[C@@H](C(=O)O)C4)cc(C#N)c3o2)c1C [Example 139, (R)-1-((7-cyano-2-(3′-(7-(((R)-3-hydroxypyrrolidin-1-yl)methyl)pyrido[3,2-d]pyrimidin-4-ylamino)-2,2′-dimethylbiphenyl-3-yl)benzo[d]oxazol-5-yl)methyl)pyrrolidine-3-carboxylic acid]
≤ 0.01	Cc1c(-c2nc3c(o2)CN(C(=O)CN2CC(C)(O)C2)C3)cccc1-c1cccc(-c2nc3cc(CN4CC[C@@H](C(=O)O)C4)cc(C#N)c3o2)c1C [Example 129, (R)-1-((7-cyano-2-(3′-(5-(2-(3-hydroxy-3-methylazetidin-1-yl)acetyl)-5,6-dihydro-4H-pyrrolo[3,4-d]oxazol-2-yl)-2,2′-dimethyl-[1,1′-biphenyl]-3-yl)benzo[d]oxazol-5-yl)methyl)pyrrolidine-3-carboxylic acid]
≤ 0.01	Cc1c(Nc2nccc3cc(CNCCO)cnc23)cccc1-c1cccc(-c2nc3cc(CN4CC[C@@](C)(C(=O)O)C4)cc(C#N)c3o2)c1C [Example 189, (R)-1-((7-cyano-2-(3′-(3-((2-hydroxyethylamino)methyl)-1,7-naphthyridin-8-ylamino)-2,2′-dimethylbiphenyl-3-yl)benzo[d]oxazol-5-yl)methyl)-3-methylpyrrolidine-3-carboxylic acid]
